What was measured:
Test in all cases: In vitro antibacterial evaluation: minimum inhibitory concentration (MIC), broth dilution method
Type in all cases: cell-based
Escherichia coli [1] = test system: Escherichia coli
Staphylococcus sp. = conditions: 18 hours at 35° C.
Method in brief: (§1)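 Inoculum: 5×10^5 CFU/mL. Range: 64-0.06 μg/mL. Medium: Muller-Hinton II […]; NCCLS M7-A2 broth dilution. Endpoint: lowest concentration inhibiting growth. Strains include methicillin-, penicillin- and/or vancomycin-resistant clinical isolates.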

Escherichia coli [2] = test system: Escherichia coli; remark: listed apart in the source
Method in brief: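 Susceptibility determined by NCCLS-recommended broth dilution (M7-A2), Muller-Hinton II […]. Concentration span 64-0.06 μg/mL, inoculum 5×10^5 CFU/mL. Isolates include strains resistant to methicillin, penicillin and/or vancomycin.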

Enterococcus sp. = test system: Enterococcus sp.
Method in brief: as §1

CC(C)CCC(=O)OC1C(OC2C(CO)OC(Oc3ccc(CC4NC(=O)C(C(C)c5ccccc5)NC(=O)CNC(=O)C(CO)NC(=O)C(C(O)C5CNC(=N)N5C5OC(CO)C(O)C(O)C5O)NC(=O)C(C(O)C5CNC(=N)N5)NC4=O)cc3)C(O)C2O)OC(CO)C(O)C1O (stereo not drawn) [Example 270a, Cyclo[glycyl-β-methylphenylalanyl-O-[4-O-[2-O-(4-methylpentanoyl)hexopyranosyl]-hexopyranosyl]tyrosyl-3-(2-iminoimidazolidin-4-yl)seryl-3-(3-hexopyranosyl-2-iminoimidazolidin-4-yl)serylseryl]]
16 µg/mL: MIC Enterococcus avium (GC 4558) (Enterococcus sp.) | MIC Enterococcus faecalis (ATCC 29212) (Enterococcus sp.) | MIC Enterococcus faecalis (GC 4553) (Enterococcus sp.) | MIC Enterococcus faecium (GC 2243) (Enterococcus sp.) | MIC Enterococcus faecium (GC 4556) (Enterococcus sp.)
32 µg/mL: MIC Enterococcus faecalis (GC 4554) (Enterococcus sp.)
4 µg/mL: MIC Coagulase Negative Staphylococcus (GC 4551) (Staphylococcus sp.) | MIC Coagulase Negative Staphylococcus (GC 4551) (Staphylococcus sp.; broth dilution) | MIC Staphylococcus aureus (ATCC 29213) (Staphylococcus sp.) | MIC Staphylococcus aureus (ATCC 29213) (Staphylococcus sp.; broth dilution) | MIC Staphylococcus aureus (GC 1131) (Staphylococcus sp.) | MIC Staphylococcus aureus (GC 1131) (Staphylococcus sp.; broth dilution) | MIC Staphylococcus aureus (GC 4541) (Staphylococcus sp.) | MIC Staphylococcus aureus (GC 4541) (Staphylococcus sp.; broth dilution) | MIC Staphylococcus aureus (GC 4542) (Staphylococcus sp.) | MIC Staphylococcus aureus (GC 4542) (Staphylococcus sp.; broth dilution) | MIC Staphylococcus aureus (GC 4544) (Staphylococcus sp.) | MIC Staphylococcus aureus (GC 4544) (Staphylococcus sp.; broth dilution) | MIC Staphylococcus aureus (GC 4545) (Staphylococcus sp.) | MIC Staphylococcus aureus (GC 4545) (Staphylococcus sp.; broth dilution) | MIC Staphylococcus aureus-SMITH (GC 4543) (Staphylococcus sp.) | MIC Staphylococcus aureus-SMITH (GC 4543) (Staphylococcus sp.; broth dilution) | MIC Enterococcus faecium (GC 4557) (Enterococcus sp.)
2 µg/mL: MIC Coagulase Negative Staphylococcus (GC 4547) (Staphylococcus sp.) | MIC Coagulase Negative Staphylococcus (GC 4547) (Staphylococcus sp.; broth dilution) | MIC Coagulase Negative Staphylococcus (GC 4548) (Staphylococcus sp.) | MIC Coagulase Negative Staphylococcus (GC 4548) (Staphylococcus sp.; broth dilution) | MIC Coagulase Negative Staphylococcus (GC 4549) (Staphylococcus sp.) | MIC Coagulase Negative Staphylococcus (GC 4549) (Staphylococcus sp.; broth dilution) | MIC Staphylococcus haemolyticus (GC 4546) (Staphylococcus sp.) | MIC Staphylococcus haemolyticus (GC 4546) (Staphylococcus sp.; broth dilution) | MIC Escherichia coli (GC 4560) (Escherichia coli [2])
>64 µg/mL: MIC Escherichia coli (ATCC 25922) (Escherichia coli [1]) | MIC Escherichia coli (GC 4559) (Escherichia coli [2])

CC(=O)OCC1OC(OC2C(CO)OC(Oc3ccc(CC4NC(=O)C(C(C)c5ccccc5)NC(=O)CNC(=O)C(CO)NC(=O)C(C(O)C5CNC(=N)N5C5OC(CO)C(O)C(O)C5O)NC(=O)C(C(O)C5CNC(=N)N5)NC4=O)cc3)C(O)C2O)C(O)C(OC(=O)CCC(C)C)C1O (stereo not drawn) [Example 270b, Cyclo[glycyl-β-methylphenylalanyl-O-[4-O-[6-O-acetyl-3-O-(4-methylpentanoyl)hexopyranosyl]hexopyranosyl]tyrosyl-3-(2-iminoimidazolidin-4-yl)seryl-3-(3-hexopyranosyl-2-iminoimidazolidin-4-yl)serylseryl]]
>64 µg/mL: MIC Escherichia coli (ATCC 25922) (Escherichia coli [1]) | MIC Escherichia coli (GC 4559) (Escherichia coli [2])
8 µg/mL: MIC Staphylococcus aureus (ATCC 29213) (Staphylococcus sp.) | MIC Staphylococcus aureus (ATCC 29213) (Staphylococcus sp.; broth dilution) | MIC Staphylococcus aureus (GC 1131) (Staphylococcus sp.) | MIC Staphylococcus aureus (GC 1131) (Staphylococcus sp.; broth dilution) | MIC Staphylococcus aureus (GC 4541) (Staphylococcus sp.) | MIC Staphylococcus aureus (GC 4541) (Staphylococcus sp.; broth dilution) | MIC Staphylococcus aureus (GC 4542) (Staphylococcus sp.) | MIC Staphylococcus aureus (GC 4542) (Staphylococcus sp.; broth dilution) | MIC Staphylococcus aureus (GC 4544) (Staphylococcus sp.) | MIC Staphylococcus aureus (GC 4544) (Staphylococcus sp.; broth dilution) | MIC Enterococcus faecium (GC 4557) (Enterococcus sp.)
32 µg/mL: MIC Enterococcus avium (GC 4558) (Enterococcus sp.) | MIC Enterococcus faecalis (ATCC 29212) (Enterococcus sp.) | MIC Enterococcus faecalis (GC 4553) (Enterococcus sp.) | MIC Enterococcus faecalis (GC 4554) (Enterococcus sp.) | MIC Enterococcus faecium (GC 2243) (Enterococcus sp.) | MIC Enterococcus faecium (GC 4556) (Enterococcus sp.)
4 µg/mL: MIC Coagulase Negative Staphylococcus (GC 4547) (Staphylococcus sp.) | MIC Coagulase Negative Staphylococcus (GC 4547) (Staphylococcus sp.; broth dilution) | MIC Coagulase Negative Staphylococcus (GC 4548) (Staphylococcus sp.) | MIC Coagulase Negative Staphylococcus (GC 4548) (Staphylococcus sp.; broth dilution) | MIC Coagulase Negative Staphylococcus (GC 4549) (Staphylococcus sp.) | MIC Coagulase Negative Staphylococcus (GC 4549) (Staphylococcus sp.; broth dilution) | MIC Coagulase Negative Staphylococcus (GC 4551) (Staphylococcus sp.) | MIC Coagulase Negative Staphylococcus (GC 4551) (Staphylococcus sp.; broth dilution) | MIC Staphylococcus aureus (GC 4545) (Staphylococcus sp.) | MIC Staphylococcus aureus (GC 4545) (Staphylococcus sp.; broth dilution) | MIC Staphylococcus aureus-SMITH (GC 4543) (Staphylococcus sp.) | MIC Staphylococcus aureus-SMITH (GC 4543) (Staphylococcus sp.; broth dilution) | MIC Staphylococcus haemolyticus (GC 4546) (Staphylococcus sp.) | MIC Staphylococcus haemolyticus (GC 4546) (Staphylococcus sp.; broth dilution) | MIC Escherichia coli (GC 4560) (Escherichia coli [2])

CC=C(C)C(=O)OC1C(CO)OC(OC2C(CO)OC(Oc3ccc(CC4NC(=O)C(C(C)c5ccccc5)NC(=O)CNC(=O)C(CO)NC(=O)C(C(O)C5CNC(=N)N5C5OC(CO)C(O)C(O)C5O)NC(=O)C(C(O)C5CNC(=N)N5)NC4=O)cc3)C(O)C2O)C(O)C1O (stereo not drawn) [Example 278b, Cyclo[glycyl-β-methylphenylalanyl-O-[4-O-[4-O-(2-methylbut-2-enoyl)hexopyranosyl]-hexopyranosyl]tyrosyl-3-(2-iminoimidazolidin-4-yl)seryl-3-(3-hexopyranosyl-2-imino-imidazolidin-4-yl)serylseryl]]
>64 µg/mL: MIC Escherichia coli (ATCC 25922) (Escherichia coli [1]) | MIC Escherichia coli (GC 4559) (Escherichia coli [2])
2 µg/mL: MIC Coagulase Negative Staphylococcus (GC 4549) (Staphylococcus sp.) | MIC Coagulase Negative Staphylococcus (GC 4549) (Staphylococcus sp.; broth dilution) | MIC Coagulase Negative Staphylococcus (GC 6257) (Staphylococcus sp.) | MIC Coagulase Negative Staphylococcus (GC 6257) (Staphylococcus sp.; broth dilution)
4 µg/mL: MIC Coagulase Negative Staphylococcus (GC 4547) (Staphylococcus sp.) | MIC Coagulase Negative Staphylococcus (GC 4547) (Staphylococcus sp.; broth dilution) | MIC Coagulase Negative Staphylococcus (GC 4548) (Staphylococcus sp.) | MIC Coagulase Negative Staphylococcus (GC 4548) (Staphylococcus sp.; broth dilution) | MIC Staphylococcus aureus (GC 3051) (Staphylococcus sp.) | MIC Staphylococcus aureus (GC 3051) (Staphylococcus sp.; broth dilution) | MIC Staphylococcus aureus (GC 4545) (Staphylococcus sp.) | MIC Staphylococcus aureus (GC 4545) (Staphylococcus sp.; broth dilution) | MIC Staphylococcus haemolyticus (GC 4546) (Staphylococcus sp.) | MIC Staphylococcus haemolyticus (GC 4546) (Staphylococcus sp.; broth dilution) | MIC Escherichia coli (GC 4560) (Escherichia coli [2])
8 µg/mL: MIC Coagulase Negative Staphylococcus (GC 4551) (Staphylococcus sp.) | MIC Coagulase Negative Staphylococcus (GC 4551) (Staphylococcus sp.; broth dilution) | MIC Staphylococcus aureus (ATCC 29213) (Staphylococcus sp.) | MIC Staphylococcus aureus (ATCC 29213) (Staphylococcus sp.; broth dilution) | MIC Staphylococcus aureus (GC 1131) (Staphylococcus sp.) | MIC Staphylococcus aureus (GC 1131) (Staphylococcus sp.; broth dilution) | MIC Staphylococcus aureus (GC 3053) (Staphylococcus sp.) | MIC Staphylococcus aureus (GC 3053) (Staphylococcus sp.; broth dilution) | MIC Staphylococcus aureus (GC 4541) (Staphylococcus sp.) | MIC Staphylococcus aureus (GC 4541) (Staphylococcus sp.; broth dilution) | MIC Staphylococcus aureus (GC 4542) (Staphylococcus sp.) | MIC Staphylococcus aureus (GC 4542) (Staphylococcus sp.; broth dilution) | MIC Staphylococcus aureus (GC 4544) (Staphylococcus sp.) | MIC Staphylococcus aureus (GC 4544) (Staphylococcus sp.; broth dilution) | MIC Staphylococcus aureus-SMITH (GC 4543) (Staphylococcus sp.) | MIC Staphylococcus aureus-SMITH (GC 4543) (Staphylococcus sp.; broth dilution) | MIC Enterococcus faecium (GC 4557) (Enterococcus sp.)
32 µg/mL: MIC Enterococcus avium (GC 4558) (Enterococcus sp.) | MIC Enterococcus faecalis (ATCC 29212) (Enterococcus sp.) | MIC Enterococcus faecalis (GC 4553) (Enterococcus sp.) | MIC Enterococcus faecalis (GC 4554) (Enterococcus sp.) | MIC Enterococcus faecalis (GC 6189) (Enterococcus sp.; Enterococcus faecalis (GC 6189)) | MIC Enterococcus faecium (GC 2243) (Enterococcus sp.) | MIC Enterococcus faecium (GC 4556) (Enterococcus sp.)

From US8247211B2, “Glycopeptide antibiotics” (American Cyanamid Company, priority 2001, dated 2012)
